These results are taken from patent US8486977B2, “1,2,3-triazole derivatives for use as stearoyl-CoA desaturase inhibitors” (GlaxoSmithKline LLC, priority 2007, dated 2013).

Each structure is given as a SMILES string.

`COC(=O)c1cc(NC(=O)c2nnn(Cc3ccc(Cl)c(Cl)c3)c2C)ccc1O` [Example 29, Methyl 5-[({1-[(3,4-dichlorophenyl)methyl]-5-methyl-1H-1,2,3-triazol-4-yl}carbonyl)amino]-2-hydroxybenzoate] registered a melting point of 180 °C.

Molecule `COc1ccc(NC(=O)c2cn(Cc3ccc(F)cc3)nn2)cc1OC` showed a melting point of 197.8 °C. To `Cc1c(C(=O)Nc2ccc(OCc3ccccc3)cc2)nnn1Cc1ccccc1` [Example 7, 5-Methyl-1-(phenylmethyl)-N-{4-[(phenylmethyl)oxy]phenyl}-1H-1,2,3-triazole-4-carboxamide] belongs 125 °C; to `Cc1c(C(=O)Nc2ccc(F)c(CO)c2)nnn1Cc1ccc(Cl)c(Cl)c1` [Example 53, 1-[(3,4-Dichlorophenyl)methyl]-N-[4-fluoro-3-(hydroxymethyl)phenyl]-5-methyl-1H-1,2,3-triazole-4-carboxamide], 189.7 °C; to `CCOC(=O)c1ccc(NC(=O)c2nnn(Cc3ccc(Cl)c(Cl)c3)c2C)cc1` [Example 48, Ethyl 4-[({1-[(3,4-dichlorophenyl)methyl]-5-methyl-1H-1,2,3-triazol-4-yl}carbonyl)amino]benzoate], 167 °C.

Turning to `Cc1c(C(=O)Nc2cccc(CO)c2)nnn1Cc1cccc(Cl)c1` [Example 86, 1-[(3-Chlorophenyl)methyl]-N-[3-(hydroxymethyl)phenyl]-5-methyl-1H-1,2,3-triazole-4-carboxamide], the melting point is 151.9 °C.

In the case of `Cc1c(C(=O)Nc2cc(CO)cc(CO)c2)nnn1Cc1ccc(F)cc1` [Example 81, N-[3,5-bis(Hydroxymethyl)phenyl]-1-[(4-fluorophenyl)methyl]-5-methyl-1H-1,2,3-triazole-4-carboxamide], the melting point turned out to be 180.3 °C. To `Cc1c(C(=O)Nc2cccc(CO)c2)nnn1Cc1cccc(F)c1` [Example 89, 1-[(3-Fluorophenyl)methyl]-N-[3-(hydroxymethyl)phenyl]-5-methyl-1H-1,2,3-triazole-4-carboxamide] belongs 124.7 °C; to `Cc1c(C(=O)Nc2cc(CO)cc(CO)c2)nnn1Cc1cccc(Cl)c1` [Example 61, -[3,5-bis(Hydroxymethyl)phenyl]-1-[(3-chlorophenyl)methyl]-5-methyl-1H-1,2,3-triazole-4-carboxamide], 192.7 °C. The same measure for `COC(=O)c1cc(NC(=O)c2nnn(Cc3ccc(Cl)c(Cl)c3)c2C)ccc1F` [Example 32, Methyl 5-[({1-[(3,4-dichlorophenyl)methyl]-5-methyl-1H-1,2,3-triazol-4-yl}carbonyl)amino]-2-fluorobenzoate]: 169.8 °C. The same measure for `Cc1c(CO)cccc1NC(=O)c1nnn(Cc2ccccc2)c1C` [Example 39, N-[3-(Hydroxymethyl)-2-methylphenyl]-5-methyl-1-(phenylmethyl)-1H-1,2,3-triazole-4-carboxamide]: 157 °C; for `Cc1c(C(=O)Nc2ccc(OCCC(C)C)cc2)nnn1Cc1ccc(F)cc1`: 114 °C; for `Cc1c(C(=O)Nc2cccc(C(C)(C)O)c2)nnn1Cc1ccc(Cl)c(Cl)c1` [Example 76, 1-[(3,4-Dichlorophenyl)methyl]-N-[3-(1-hydroxy-1-methylethyl)phenyl]-5-methyl-1H-1,2,3-triazole-4-carboxamide]: 58 °C. `CCNC(=O)c1cccc(NC(=O)c2nnn(Cc3ccc(Cl)c(Cl)c3)c2C)c1` [Example 67, 1-[(3,4-Dichlorophenyl)methyl]-N-{3-[(ethylamino)carbonyl]phenyl}-5-methyl-1H-1,2,3-triazole-4-carboxamide]: the melting point came to 192.2 °C. To `Cc1c(C(=O)Nc2cccc(CO)c2)nnn1Cc1ccc(F)cc1` [Example 87, 1-[(4-Fluorophenyl)methyl]-N-[3-(hydroxymethyl)phenyl]-5-methyl-1H-1,2,3-triazole-4-carboxamide] belongs 142.1 °C; to `COc1ccc(CCO)cc1NC(=O)c1nnn(Cc2ccc(Cl)c(Cl)c2)c1C` [Example 54, 1-[(3,4-Dichlorophenyl)methyl]-N-[5-(2-hydroxyethyl)-2-(methyloxy)phenyl]-5-methyl-1H-1,2,3-triazole-4-carboxamide], 138 °C; to `COc1ccc(CO)cc1NC(=O)c1nnn(Cc2cc(Cl)cc(Cl)c2)c1C` [Example 57, 1-[(3,5-Dichlorophenyl)methyl]-N-[5-(hydroxymethyl)-2-(methyloxy)phenyl]-5-methyl-1H-1,2,3-triazole-4-carboxamide], 214 °C. `CNC(=O)c1ccc(NC(=O)c2nnn(Cc3ccc(Cl)c(Cl)c3)c2C)cc1` [Example 19, 1-[(3,4-Dichlorophenyl)methyl]-5-methyl-N-{4-[(methylamino)carbonyl]phenyl}-1H-1,2,3-triazole-4-carboxamide] returned a melting point of 183.7 °C. The same measure for `C=C(C)c1ccc(NC(=O)c2nnn(Cc3ccc(Cl)c(Cl)c3)c2C)c(OC)c1`: 170 °C. Regarding `COc1ccc(C(N)=O)cc1NC(=O)c1nnn(Cc2ccc(Cl)c(Cl)c2)c1C` [Example 33, N-[5-(Aminocarbonyl)-2-(methyloxy)phenyl]-1-[(3,4-dichlorophenyl)methyl]-5-methyl-1H-1,2,3-triazole-4-carboxamide], the melting point turned out to be 218.2 °C. To `Cc1c(C(=O)Nc2ccc(CO)cc2)nnn1Cc1cccc(Cl)c1` [Example 88, 1-[(3-Chlorophenyl)methyl]-N-[4-(hydroxymethyl)phenyl]-5-methyl-1H-1,2,3-triazole-4-carboxamide] belongs 136.2 °C; to `Cc1c(C(=O)Nc2cc(CO)cc(CO)c2)nnn1Cc1cccc(F)c1` [Example 84, N-[3,5-bis(Hydroxymethyl)phenyl]-1-[(3-fluorophenyl)methyl]-5-methyl-1H-1,2,3-triazole-4-carboxamide], 173.1 °C; to `COc1ccc(CO)cc1NC(=O)c1nnn(Cc2ccc(Cl)c(Cl)c2)c1C` [Example 51, 1-[(3,4-Dichlorophenyl)methyl]-N-[5-(hydroxymethyl)-2-(methyloxy)phenyl]-5-methyl-1H-1,2,3-triazole-4-carboxamide], 198 °C. `Cc1c(C(=O)Nc2ccc(O)c(CO)c2)nnn1Cc1ccc(Cl)c(Cl)c1` [Example 26, 1-[(3 4 Dichlorophenyl)methyl]-N-[4-hydroxy-3-(hydroxymethyl)phenyl]-5-methyl-1H-1,2,3-triazole-4-carboxamide]: the melting point is 175.6 °C. The same measure for `Cc1c(C(=O)Nc2ccc(OCc3ccccc3)cc2)nnn1Cc1ccc(Br)cc1` [Example 3, 1-[(4-Bromophenyl)methyl]-5-methyl-N-{4-[(phenylmethyl)oxy]phenyl}-1H-1,2,3-triazole-4-carboxamide]: 168.7 °C; for `Cc1c(C(=O)Nc2ccc(CO)c(CO)c2)nnn1Cc1cccc(Cl)c1` [Example 82, N-[3,4-bis(Hydroxymethyl)phenyl]-1-[(3-chlorophenyl)methyl]-5-methyl-1H-1,2,3-triazole-4-carboxamide]: 157 °C; for `Cc1c(C(=O)Nc2cc(CO)cc(CO)c2)nnn1Cc1ccccc1` [Example 60, N-[3,5-bis(Hydroxymethyl)phenyl]-5-methyl-1-(phenylmethyl)-1H-1,2,3-triazole-4-carboxamide]: 148.2 °C. Molecule `Cc1c(C(=O)Nc2cc(C(=O)O)cc(C(=O)O)c2)nnn1Cc1ccccc1` [Example 65, 5-({[5-Methyl-1-(phenylmethyl)-1H-1,2,3-triazol-4-yl]carbonyl}amino)-1,3-benzenedicarboxylic acid] had a melting point of 307.2 °C. To `Cc1c(CO)cccc1NC(=O)c1nnn(Cc2cc(Cl)cc(Cl)c2)c1C` [Example 42, 1-[(3,5-Dichlorophenyl)methyl]-N-[3-(hydroxymethyl)-2-methylphenyl]-5-methyl-1H-1,2,3-triazole-4-carboxamide] belongs 185 °C; to `Cc1c(C(=O)Nc2ccc(F)c(CO)c2)nnn1Cc1cc(Cl)cc(Cl)c1` [Example 59, 1-[(3,5-Dichlorophenyl)methyl]-N-[4-fluoro-3-(hydroxymethyl)phenyl]-5-methyl-1H-1,2,3-triazole-4-carboxamide], 178 °C. To `Cc1c(C(=O)Nc2ccc(CO)c(CO)c2)nnn1Cc1ccc(Cl)c(Cl)c1` [Example 58, N-[3,4-bis(Hydroxymethyl)phenyl]-1-[(3,4-dichlorophenyl)methyl]-5-methyl-1H-1,2,3-triazole-4-carboxamide] belongs 203 °C.

Molecule `CCOC(=O)c1cccc(NC(=O)c2nnn(Cc3ccc(Cl)c(Cl)c3)c2C)c1` [Example 20, Ethyl 3-[({1-[(3,4-dichlorophenyl)methyl]-5-methyl-1H-1,2,3-triazol-4-yl}carbonyl)amino]benzoate] returned a melting point of 131.8 °C. The same measure for `Cc1c(C(=O)Nc2ccc(CO)cc2)nnn1Cc1cccc(F)c1` [Example 91, 1-[(3-Fluorophenyl)methyl]-N-[4-(hydroxymethyl)phenyl]-5-methyl-1H-1,2,3-triazole-4-carboxamide]: 134.3 °C; for `Cc1c(C(=O)Nc2ccc(OCCC(C)C)cc2)nnn1Cc1ccc(-c2ccccc2Cl)cc1` [Example 9, 1-[(2’-Chloro-4-biphenylyl)methyl]-5-methyl-N-{4-[(3-methylbutyl)oxy]phenyl}-1H-1,2,3-triazole-4-carboxamide]: 125 °C (dec.); for `Cc1c(C(=O)Nc2cccc(CO)c2)nnn1Cc1cc(Cl)cc(Cl)c1` [Example 40, 1-[(3,5-Dichlorophenyl)methyl]-N-[3-(hydroxymethyl)phenyl]-5-methyl-1H-1,2,3-triazole-4-carboxamide]: 159 °C.

For `Cc1c(C(=O)Nc2cccc(CO)c2)nnn1Cc1ccccc1` [Example 37, N-[3-(Hydroxymethyl)phenyl]-5-methyl-1-(phenylmethyl)-1H-1,2,3-triazole-4-carboxamide], the melting point was determined as 105.8 °C.

In turn, `COC(=O)Cc1ccc(OC)c(NC(=O)c2nnn(Cc3ccc(Cl)c(Cl)c3)c2C)c1` [Example 35, Methyl [3-[({1-[(3,4-dichlorophenyl)methyl]-5-methyl-1H-1,2,3-triazol-4-yl}carbonyl)amino]-4-(methyloxy)phenyl]acetate] returned a melting point of 133 °C.
